Measurements reported in patent US20240150368A1, “ULK INHIBITORS AND METHODS OF USE THEREOF” (Deciphera Pharmaceuticals, LLC, priority 2022, published 2024).

Experiments:
[1] = test system: ULK kinase substrate ATG13 (pS318-ATG13) in MiaPaCa-2 cells; experiment: pATG13 levels of mutant KRas MiaPaCa-2 cells after treatment with ULK inhibitors in combination with trametinib (ELISA); assay type: cell-based, human
Method in brief: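 MiaPaCa-2 cells grown overnight, then dosed with test compound titration plus trametinib (final 250 nM) or DMSO, overnight at 37° C. Lysate pS318-ATG13 measured by sandwich ELISA (total ATG13 capture, biotinylated pS318 detection, HRP/TMB, A450 minus A540); % phosphorylation vs control wells fitted to IC50.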

LRRK2 kinase = target: T1, LRRK2 kinase (Homo sapiens, UniProt Q5S007); experiment: Biochemical assay for LRRK2 (coupled pyruvate kinase/lactate dehydrogenase assay); conditions: 26.4 nM LRRK2, 1 mM ATP; read-out: LRRK2 (inhibition of LRRK2 kinase activity, IC50)
T1 construct: (residues 970-2528; ID NO; 3); purchased Thermo Fisher
T1 sequence (Q5S007 with tags, fused parts or gaps): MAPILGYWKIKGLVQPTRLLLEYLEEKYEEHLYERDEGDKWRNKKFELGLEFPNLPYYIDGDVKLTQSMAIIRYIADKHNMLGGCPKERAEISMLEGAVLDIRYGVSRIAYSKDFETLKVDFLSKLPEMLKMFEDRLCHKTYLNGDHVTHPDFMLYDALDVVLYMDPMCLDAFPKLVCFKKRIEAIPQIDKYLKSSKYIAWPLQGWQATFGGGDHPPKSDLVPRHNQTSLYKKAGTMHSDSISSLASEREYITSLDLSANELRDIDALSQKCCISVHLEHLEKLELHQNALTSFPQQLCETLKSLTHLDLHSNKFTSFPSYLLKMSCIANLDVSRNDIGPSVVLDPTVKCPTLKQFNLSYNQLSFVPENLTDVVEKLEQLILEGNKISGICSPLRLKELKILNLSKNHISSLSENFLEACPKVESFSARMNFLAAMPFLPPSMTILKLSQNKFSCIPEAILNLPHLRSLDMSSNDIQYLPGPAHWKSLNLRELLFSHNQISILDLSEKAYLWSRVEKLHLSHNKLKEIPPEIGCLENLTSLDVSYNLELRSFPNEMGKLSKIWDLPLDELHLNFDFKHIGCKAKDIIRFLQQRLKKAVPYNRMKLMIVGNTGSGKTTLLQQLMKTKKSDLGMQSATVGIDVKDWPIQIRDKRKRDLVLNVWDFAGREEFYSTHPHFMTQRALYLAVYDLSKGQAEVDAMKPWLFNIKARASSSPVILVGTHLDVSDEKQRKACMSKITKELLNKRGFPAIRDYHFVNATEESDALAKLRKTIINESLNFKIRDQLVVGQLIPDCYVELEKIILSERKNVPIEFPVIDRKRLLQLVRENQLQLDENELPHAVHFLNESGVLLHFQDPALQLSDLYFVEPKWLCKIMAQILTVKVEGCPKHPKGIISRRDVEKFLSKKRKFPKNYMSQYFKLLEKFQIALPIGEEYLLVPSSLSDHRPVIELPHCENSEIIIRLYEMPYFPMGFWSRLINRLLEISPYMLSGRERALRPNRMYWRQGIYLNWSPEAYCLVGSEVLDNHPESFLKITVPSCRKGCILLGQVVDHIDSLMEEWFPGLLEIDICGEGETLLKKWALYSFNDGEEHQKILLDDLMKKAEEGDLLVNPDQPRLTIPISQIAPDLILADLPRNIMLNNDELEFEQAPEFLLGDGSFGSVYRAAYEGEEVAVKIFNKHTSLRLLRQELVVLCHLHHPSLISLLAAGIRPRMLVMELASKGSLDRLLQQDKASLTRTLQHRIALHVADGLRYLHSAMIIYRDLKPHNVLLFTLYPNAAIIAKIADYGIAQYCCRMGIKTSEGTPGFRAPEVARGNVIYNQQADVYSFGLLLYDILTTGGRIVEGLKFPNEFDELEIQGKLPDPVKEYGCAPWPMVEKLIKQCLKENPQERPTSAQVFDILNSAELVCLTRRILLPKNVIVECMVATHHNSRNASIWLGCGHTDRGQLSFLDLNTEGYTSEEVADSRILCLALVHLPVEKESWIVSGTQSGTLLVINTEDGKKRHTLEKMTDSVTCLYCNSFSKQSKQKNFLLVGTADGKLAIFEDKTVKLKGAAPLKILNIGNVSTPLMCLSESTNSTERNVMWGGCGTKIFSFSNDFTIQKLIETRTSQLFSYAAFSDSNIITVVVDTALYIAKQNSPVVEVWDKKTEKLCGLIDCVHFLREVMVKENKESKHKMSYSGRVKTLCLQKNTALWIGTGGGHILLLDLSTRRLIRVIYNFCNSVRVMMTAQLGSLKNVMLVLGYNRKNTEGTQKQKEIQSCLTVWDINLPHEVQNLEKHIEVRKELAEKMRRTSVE
Experimental: Biochemical Assay for LRRK2 (SEQ. ID NO. 3)
Activity of LRRK2 kinase was determined spectroscopically using a coupled pyruvate kinase/lactate dehydrogenase assay that continuously monitors the ATP hydrolysis-dependent oxidation of NADH (e.g., Schindler et al. Science (2000) 289: 1938-1942). Assays were conducted in 384-well plates (100 μL final volume) using 26.4 nM LRRK2 (Thermo Fisher), 0.1 mM peptide substrate (RLGRDKYKTLRQIRQ), 1.5 units pyruvate kinase, 2.1 units lactate dehydrogenase, 1 mM phosphoenol pyruvate, 0.28 mM NADH and 1 mM ATP in assay buffer (100 mM Tris, pH 7.5, 15 mM MgCl2, 0.5 mM DTT, 0.004% (w/v) BSA, and 0.004% Triton X-100). Inhibition of LRRK2 was measured by adding serial diluted test compound (final assay concentration of 1% DMSO). A decrease in absorption at 340 nm was monitored continuously for 6 h at 30° C. on a multi-mode microplate reader (BioTek). The reaction rate was calculated using the 2-3 h time frame. The reaction rate at each concentration of compound was converted to percent inhibition using controls (i.e., reaction with no test compound and reaction with a known inhibitor) and IC50 values were calculated using software routines in Prism (GraphPad software).

Compound | IC50 [1] [nM] | IC50 (LRRK2 kinase) [nM]
CC/C(Nc1cnn(C2CCN(C3CCOCC3)CC2)c1)=C1/C(=O)Nc2ccc(C(=O)NCC(C)C)cc21 [Example 37] | ≤ 100 | 100 to 300
CC/C(Nc1ccc(N2CCN(C(C)C)CC2)cc1)=C1/C(=O)Nc2ccc(C(=O)NC[C@H]3CCCO3)cc21 [Example 47] | ≤ 100 | 100 to 300
CC/C(Nc1cnn(C2CCNCC2)c1)=C1/C(=O)Nc2ccc(C(=O)NC[C@H]3CCCO3)cc21 [Example 52] | ≤ 100 | 100 to 300
CC/C(Nc1cnn(C2CN(C)C2)c1)=C1/C(=O)Nc2ccc(C(=O)NC[C@H]3CCCO3)cc21 [Example 54] | ≤ 100 | 300 to 600
CC/C(Nc1cnn(C)c1)=C1/C(=O)Nc2ccc(C(=O)NC[C@H]3CCCO3)cc21 [Example 55] | ≤ 100 | 100 to 300
CC/C(Nc1cnn(C2CCN(C(C)C)CC2)c1)=C1/C(=O)Nc2ccc(C(=O)NC[C@@H](C)OC)cc21 [Example 58] | ≤ 100 | 300 to 600
CC/C(Nc1ccc(N2CC3(CN(C)C3)C2)cc1)=C1/C(=O)Nc2ccc(C(=O)NCC(F)(F)F)cc21 [Example 62] | ≤ 100 | ≤ 100
CC/C(Nc1ccc(N2CCN(C(C)C)CC2)cn1)=C1/C(=O)Nc2ccc(C(=O)NC[C@H]3CCCO3)cc21 [Example 93] | ≤ 100 | ≤ 100
CC/C(Nc1cnc(N2CCN(C(C)C)CC2)cn1)=C1/C(=O)Nc2ccc(C(=O)NCC(F)(F)F)cc21 [Example 94] | ≤ 100 | 100 to 300
CC/C(Nc1cnn(C(C)C)c1)=C1/C(=O)Nc2ccc(C(=O)NC[C@H]3CCCO3)cc21 [Example 95] | ≤ 100 | ≤ 100
CC/C(Nc1cnn(C2CCN(C(C)C)CC2)c1)=C1/C(=O)Nc2ccc(C(=O)NCCOC)cc21 [Example 98] | ≤ 100 | 100 to 300
CC/C(Nc1cnn([C@H]2CCOC2)c1)=C1/C(=O)Nc2ccc(C(=O)NCC(F)(F)F)cc21 [Example 104] | ≤ 100 | ≤ 100
CC/C(Nc1cnn(CC)c1)=C1/C(=O)Nc2ccc(C(=O)NCC(F)(F)F)cc21 [Example 107] | ≤ 100 | ≤ 100
CC/C(Nc1cn[nH]c1)=C1/C(=O)Nc2ccc(C(=O)NCC(F)(F)F)cc21 [Example 108] | 100 to 300 | 100 to 300
CC/C(Nc1cnn(C(C)C)c1)=C1/C(=O)Nc2ccc(C(=O)NCC(F)F)cc21 [Example 112] | ≤ 100 | ≤ 100

The next lines start with the values.

IC50 [1] [nM] | IC50 (LRRK2 kinase) [nM] | Compound
≤ 100 | 100 to 300 | CC/C(Nc1cnn(C(F)(F)F)c1)=C1/C(=O)Nc2ccc(C(=O)NCC(F)(F)F)cc21 [Example 113]
≤ 100 | ≤ 100 | CC/C(Nc1cnn(C(F)F)c1)=C1/C(=O)Nc2ccc(C(=O)NCC(F)(F)F)cc21 [Example 114]
≤ 100 | ≤ 100 | CC/C(Nc1cnn(C2CC2)c1)=C1/C(=O)Nc2ccc(C(=O)NCC(F)(F)F)cc21 [Example 116]
≤ 100 | ≤ 100 | CC/C(Nc1cnn(C2CCC2)c1)=C1/C(=O)Nc2ccc(C(=O)NCC(F)(F)F)cc21 [Example 117]
≤ 100 | ≤ 100 | CC/C(Nc1cnn(C2COC2)c1)=C1/C(=O)Nc2ccc(C(=O)NCC(F)(F)F)cc21 [Example 118]
≤ 100 | ≤ 100 | CC/C(Nc1cnn(C(C)C)c1)=C1/C(=O)Nc2ccc(C(=O)N[C@H](C)C(F)(F)F)cc21 [Example 119]
≤ 100 | 100 to 300 | CC/C(Nc1cnn(C2CCN(C(C)C)CC2)c1)=C1/C(=O)Nc2ccc(C(C)=O)cc21 [Example 123]
100 to 300 | ≤ 100 | CC/C(Nc1cnn(C(C)C)c1)=C1/C(=O)Nc2ccc(C(=O)N(C)CC(F)(F)F)cc21 [Example 125]
≤ 100 | ≤ 100 | CC/C(Nc1cnn(C(C)C)c1)=C1/C(=O)Nc2ccc(C(=O)NCC(C)C)cc21 [Example 130]
≤ 100 | 100 to 300 | CC/C(Nc1cnn(C(C)C)c1)=C1/C(=O)Nc2ccc(C(=O)NCC(C)(C)F)cc21 [Example 135]
≤ 100 | 300 to 600 | CC/C(Nc1cnn(C(C)C)c1)=C1/C(=O)Nc2ccc(C(=O)NCCOC(F)(F)F)cc21 [Example 136]
100 to 300 | 100 to 300 | CC/C(Nc1cnn(C(C)C)c1)=C1/C(=O)Nc2ccc(C(=O)NCC3CCC(C)(C)O3)cc21 (stereo not drawn) [Example 137]
≤ 100 | ≤ 100 | CC/C(Nc1cnn(C(C)C)c1)=C1/C(=O)Nc2ccc(C(=O)NCC3(C(F)(F)F)CC3)cc21 [Example 140]
100 to 300 | ≤ 100 | CC/C(Nc1ccc2nn(C(C)C)cc2c1)=C1/C(=O)Nc2ccc(C(=O)NCC(F)(F)F)cc21 [Example 142]
≤ 100 | ≤ 100 | CC/C(Nc1cnn(C(C)C)c1)=C1/C(=O)Nc2ccc(C(=O)NCC3(F)CC3)cc21 [Example 152]
≤ 100 | ≤ 100 | CC/C(Nc1cnn(C)c1)=C1/C(=O)Nc2ccc(C(=O)NCC3(F)CC3)cc21 [Example 154]
≤ 100 | 100 to 300 | CC/C(Nc1cnn(CC(F)F)c1)=C1/C(=O)Nc2ccc(C(=O)NCC(C)(C)F)cc21 [Example 161]
≤ 100 | ≤ 100 | CC/C(Nc1cnn(C2CCOCC2)c1)=C1/C(=O)Nc2ccc(C(=O)NCC(C)(C)F)cc21 [Example 173]
